The values below are quoted from earlier work in patent publication US20090022826A1, “Multi-step method of pain and/or inflammation treatment” (priority 2007, published 2009).

For `CCOCCOCCO` [Ethoxydiglycol, diethylene glycol monoethyl ether], under “alcohol”, the solubility in alcohol result is listed as “soluble”. The “solubility in mineral oil” value (mineral oil) is listed as “insoluble”. The “solubility in vegetable oil” value (vegetable oil) is “partially soluble”. For the same molecule, the solubility in water result (water) is recorded as “soluble”.
